Results from US20230172958A1, “USE OF COMPOUNDS FOR TREATING VIRAL INFECTIONS” (priority 2020, published 2023).
“Also recorded” adds a separate entry of the source. Like-named read-outs stand apart in the source and are kept apart here.

Assays:
SARS-CoV-2 = format: in vivo, golden Syrian hamster
[1] = test system: Human Peripheral Blood Lymphocytes; assay: MTT toxicity assay on normal cells; format: cell-based; conditions: 48 hours
Procedure: Toxicity studies of compounds of the present invention on normal cells The toxicity study was performed on Human Peripheral Blood Lymphocytes obtained differential centrifugation of defibrinated blood. MTT assay for compound of the present invention was performed to determine its toxicity. MTT assay is a simple and sensitive assay where, metabolic reducing activity of the cells is measured. It was carried out in the following manner.
A required volume of cell suspension was prepared as per the cell plating efficiency. 200 μl of prepared cell suspension was added in labelled 96 well plates and the plates were placed in an incubator for 18-24 hours at 37° C. and 5% CO2. Then, 2 μl of respective compound dilution was added and the plates were placed in the incubator for 48 hours at 37° C. and 5% CO2. The suspension was aspirated from the plates and 100 μl of working MTT solution (0.5 mg/ml MTT prepared from 5 mg/ml MTT stock in 1× complete media) was added. The plates were incubated in the incubator for 4 hours at 37° C. and 5% CO2. The plates were spinned down, supernatant removed, 200 μl DMSO was added, mixed gently and placed in the incubator for 10 minutes at 37° C. and 5% CO2. The absorbance at 570 nm was read and percentage viability and IC50 value of the compounds was calculated using regression analysis.

## COC1COC(Oc2ccc(-c3ccc4c(c3)OCO4)c3ccccc23)C(O)C1OC (centres unmarked) [Compound of Formula E, 2-(1-(benzo[d][1,3]dioxol-5-yl)naphthalen-4-yloxy)-tetrahydro-4,5-dimethoxy-2H-pyran-3-ol]
SARS-CoV-2; across all the groups
  IL4 mRNA expression in splenocytes: dramatic inhibition
SARS-CoV-2; hamster, in vivo
  body mass loss post infection: did not lose weight post infection; also recorded: second best recovery; also recorded: marginal protection
  gross lung pneumonitis and inflammation, day 4 post challenge: significantly lesser regions of pneumonitis and inflammation
  histological parameters and overall disease score (H&E): best protection
  histological protection (H&E): little, or no protection
  pneumonitis, alveolar epithelial injury and lung inflammation score (H&E): good reduction
  reduction in relative lung viral load (N2 gene): 5 fold
  splenomegaly: significant mitigation
SARS-CoV-2; other drug groups (δI/200, δII/800, δIV/400)
  spleen size: little or no reduction
SARS-CoV-2; pre-treatment with 400 mpk, compared to Remdesivir
  overall protective efficacy against SARS-CoV-2 infection: decreased lung viral load and pneumonitis compared to Remdesivir
SARS-CoV-2; δI/200
  IL17A mRNA expression in splenocytes: inhibition
  INFγ mRNA expression in splenocytes: highest induction
SARS-CoV-2; δIII/p400
  IL17A mRNA expression in splenocytes: inhibition
[1]
  IC50 (μM): No activity (Nontoxic)
